From PubChem BioAssay (NCI)
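Test compounds were applied to cells in 96-well plates for 48 hours at 5 doses. Definition used: TGI = concentration required for complete inhibition of growth.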

Key:
Experiment in all cases: NCI anticancer screen, dose series, 48 h
786-0 renal = tested on: 786-0 renal
A498 renal = tested on: A498 renal
A549 NSCLC = tested on: A549 NSCLC
ACHN renal = tested on: ACHN renal
CAKI-1 renal = tested on: CAKI-1 renal
CCRF-CEM leukemia = tested on: CCRF-CEM leukemia
COLO 205 colon = tested on: COLO 205 colon
DLD-1 colon = tested on: DLD-1 colon
DMS 114 small cell lung = tested on: DMS 114 small cell lung
DMS 273 small cell lung = tested on: DMS 273 small cell lung
EKVX NSCLC = tested on: EKVX NSCLC
HCC-2998 colon = tested on: HCC-2998 colon
HCT-116 colon = tested on: HCT-116 colon
HCT-15 colon = tested on: HCT-15 colon
HL-60(TB) leukemia = tested on: HL-60(TB) leukemia
HOP-18 NSCLC = tested on: HOP-18 NSCLC
HOP-62 NSCLC = tested on: HOP-62 NSCLC
HOP-92 NSCLC = tested on: HOP-92 NSCLC
HT29 colon = tested on: HT29 colon
IGROV1 ovarian = tested on: IGROV1 ovarian
K-562 leukemia = tested on: K-562 leukemia
KM12 colon = tested on: KM12 colon
KM20L2 colon = tested on: KM20L2 colon
LOX IMVI melanoma = tested on: LOX IMVI melanoma
LXFL 529 NSCLC = tested on: LXFL 529 NSCLC
M14 melanoma = tested on: M14 melanoma
M19-MEL melanoma = tested on: M19-MEL melanoma
MALME-3M melanoma = tested on: MALME-3M melanoma
MOLT-4 leukemia = tested on: MOLT-4 leukemia
NCI-H226 lung = tested on: NCI-H226 lung
NCI-H23 lung = tested on: NCI-H23 lung
NCI-H460 lung = tested on: NCI-H460 lung
NCI-H522 lung = tested on: NCI-H522 lung
OVCAR-3 ovarian = tested on: OVCAR-3 ovarian
OVCAR-4 ovarian = tested on: OVCAR-4 ovarian
OVCAR-5 ovarian = tested on: OVCAR-5 ovarian
OVCAR-8 ovarian = tested on: OVCAR-8 ovarian
RPMI-8226 leukemia = tested on: RPMI-8226 leukemia
RXF 393 renal = tested on: RXF 393 renal
RXF-631 renal = tested on: RXF-631 renal
SF-268 CNS = tested on: SF-268 CNS
SF-539 CNS = tested on: SF-539 CNS
SK-MEL-2 melanoma = tested on: SK-MEL-2 melanoma
SK-MEL-28 melanoma = tested on: SK-MEL-28 melanoma
SK-MEL-5 melanoma = tested on: SK-MEL-5 melanoma
SK-OV-3 ovarian = tested on: SK-OV-3 ovarian
SN12C renal = tested on: SN12C renal
SNB-19 CNS = tested on: SNB-19 CNS
SNB-75 CNS = tested on: SNB-75 CNS
SNB-78 CNS = tested on: SNB-78 CNS
SW-620 colon = tested on: SW-620 colon
TK-10 renal = tested on: TK-10 renal
U251 CNS = tested on: U251 CNS
UACC-257 melanoma = tested on: UACC-257 melanoma
UACC-62 melanoma = tested on: UACC-62 melanoma
UO-31 renal = tested on: UO-31 renal
XF 498 CNS = tested on: XF 498 CNS
SF-295 CNS = tested on: SF-295 CNS
SR leukemia = tested on: SR leukemia

Measured: TGI

CCOP(=O)(OCC)C(C(=O)OC)C(=O)C(=O)Nc1c(C)cc(Br)cc1C (stereo not drawn)
> 100 µM: 786-0 renal | A498 renal | A549 NSCLC | ACHN renal | CAKI-1 renal | CCRF-CEM leukemia | COLO 205 colon | DLD-1 colon | DMS 114 small cell lung | DMS 273 small cell lung | EKVX NSCLC | HCC-2998 colon | HCT-116 colon | HCT-15 colon | HL-60(TB) leukemia | HOP-18 NSCLC | HOP-62 NSCLC | HOP-92 NSCLC | HT29 colon | IGROV1 ovarian | K-562 leukemia | KM12 colon | KM20L2 colon | LOX IMVI melanoma | LXFL 529 NSCLC | M14 melanoma | M19-MEL melanoma | MALME-3M melanoma | MOLT-4 leukemia | NCI-H226 lung | NCI-H23 lung | NCI-H460 lung | NCI-H522 lung | OVCAR-3 ovarian | OVCAR-4 ovarian | OVCAR-5 ovarian | OVCAR-8 ovarian | RPMI-8226 leukemia | RXF 393 renal | RXF-631 renal | SF-268 CNS | SF-539 CNS | SK-MEL-2 melanoma | SK-MEL-28 melanoma | SK-MEL-5 melanoma | SK-OV-3 ovarian | SN12C renal | SNB-19 CNS | SNB-75 CNS | SNB-78 CNS | SW-620 colon | TK-10 renal | U251 CNS | UACC-257 melanoma | UACC-62 melanoma | UO-31 renal | XF 498 CNS

COc1ccc2[nH]cc(CCNC(=O)[C@](O)(Cc3cn(C)c4ccccc34)[C@@]3(O)OCC(O)C3O)c2c1 (stereo partly drawn)
> 100 µM: 786-0 renal | A549 NSCLC | ACHN renal | CAKI-1 renal | CCRF-CEM leukemia | COLO 205 colon | DLD-1 colon | DMS 114 small cell lung | DMS 273 small cell lung | EKVX NSCLC | HCC-2998 colon | HCT-116 colon | HCT-15 colon | HL-60(TB) leukemia | HOP-18 NSCLC | HOP-62 NSCLC | HOP-92 NSCLC | HT29 colon | IGROV1 ovarian | K-562 leukemia | KM12 colon | KM20L2 colon | LOX IMVI melanoma | LXFL 529 NSCLC | M14 melanoma | M19-MEL melanoma | MALME-3M melanoma | MOLT-4 leukemia | NCI-H226 lung | NCI-H23 lung | NCI-H460 lung | NCI-H522 lung | OVCAR-3 ovarian | OVCAR-4 ovarian | OVCAR-5 ovarian | OVCAR-8 ovarian | RPMI-8226 leukemia | RXF 393 renal | RXF-631 renal | SF-268 CNS | SF-295 CNS | SF-539 CNS | SK-MEL-2 melanoma | SK-MEL-28 melanoma | SK-MEL-5 melanoma | SK-OV-3 ovarian | SN12C renal | SNB-19 CNS | SNB-75 CNS | SR leukemia | SW-620 colon | TK-10 renal | U251 CNS | UACC-257 melanoma | UACC-62 melanoma | XF 498 CNS
